This is an account of results in a melting point compilation (Tetko et al.; mined from patent text by program, amines drawn as free bases though some values may be those of a salt).

The structures appear in SMILES notation.

In general, melting point refers to the temperature of the solid-liquid transition. Compound `CCCCCCCCCCNC(=O)c1ccccc1N` showed a melting point of 72 to 74 °C.

`O=C(O)[C@H]1CCCN1C(=O)Cc1ccc(CC(=O)N2CCC[C@@H]2C(=O)O)cc1` displayed a melting point of 210 to 214 °C.

Consider `COC(=O)c1ccc2cc(C(C)n3ccnc3)ccc2c1` (centres undefined), for which the melting point fell in the range of 103 to 106 °C.

Regarding `O=C1CCC(c2ccccc2)(c2ccccc2)[C@@H]2CN(Cc3ccccc3)C[C@H]12` (racemic), the melting point was determined as 132 °C.

Compound `O=C1C=CCC(CCc2ccc(Cl)cc2Cl)O1` (centres undefined) yielded a melting point of 69 to 70 °C.

Compound `CCOC(=O)c1cnoc1-c1ccc(Cl)cc1Cl` returned a melting point of 82 to 84 °C.

Turning to `c1ccc2c(c1)nc(-c1ccc3c(c1)OCO3)n2CC1CCCCC1`, the melting point lay in the range of 100 to 102 °C.

Turning to `O=c1[nH]c2cc(Cl)c(-n3cccc3)cc2cc1P(=O)(O)O`, the melting point fell in the range of 195 to 200 °C.

In the case of `CCOC(=O)c1cc2c(F)cccc2nc1Cl`, the melting point came to 97 °C.

For the compound `CCOC(=O)C1=C(N)NC(C)=C(C(=O)OC)C1c1cccc([N+](=O)[O-])c1` (centres undefined), the melting point stood at 124 °C.

`CC1(c2ccc3noc(-c4ccccc4)c3c2)OCCO1` gave a melting point of 69 to 71 °C.

`COC(=O)c1cccc2c1Nc1c(I)cccc1C2` returned a melting point of 105 to 107 °C.

`Oc1ccc(-c2ncco2)cc1` registered a melting point of 167 to 168 °C.

Consider `Cc1cc(Cl)cc(C(=O)NCC(C)O)c1NC(=O)c1cc(C(F)(F)F)nn1-c1ncccc1Cl` (centres undefined), for which the melting point lay in the range of 193 to 197 °C.

For the compound `Cc1cccc(C)c1N1CC(C)N(c2c(C)cccc2C)C1=NC(=O)C(F)(F)F` (centres undefined), the melting point is 232 to 235 °C.

With `Nc1ncc(-c2cccc(Nc3ccc(-c4ccoc4)cc3N)c2)cn1`, the melting point is 208 to 209 °C.

Compound `O=C(O)c1ccc(Cc2ccc(O)cc2)cn1` came in with a melting point of 213 to 215 °C.

In turn, `CCOC(=O)c1nn(C(=O)Nc2ccccc2)c(C)c1C` had a melting point of 139 to 140 °C.

On to `COCCOC(=O)C1Oc2ccccc2Cc2ccccc2O1`, for which the melting point is 74 to 76 °C.

In turn, `O=C(O)/C=C\C=C(c1ccccc1)c1ccccc1` returned a melting point of 175 to 176 °C.

Compound `CCOc1ccc(-c2noc3c(Cl)c(O)ccc23)c(F)c1` registered a melting point of 170 to 172 °C.

The compound `S=C(NCc1ccccc1)N1CCc2c([nH]c3ccccc23)C1c1ccc2c(c1)OCO2` (centres undefined) came in with a melting point of 205 to 207 °C.

`Cc1ccc(-n2c3ccc(C)cc3c3cc(-n4ccnc4-c4nccn4-c4ccc5c(c4)c4cc(C)ccc4n5-c4ccc(C)cc4)ccc32)cc1`: the melting point was 208 to 214 °C.

With `COc1cc(Cc2nc(NC(C)(C)C)c3c(C)c(C#N)sc3n2)cc(OC)c1OC`, the melting point was in the range of 146 to 148 °C.

As for `CCNS(=O)(=O)CC(=O)C=C(C)N`, the melting point was in the range of 112 to 114 °C.

In turn, `COc1ccc(-c2cc(NCc3ccccc3)nnc2-c2ccc(OC)cc2)cc1` gave a melting point of 125 to 126 °C.

For `Cc1cc(CN2CCN(C(C)C)CC2)cc2c1Cc1c(-c3ccsc3)n[nH]c1-2`, the melting point was in the range of 113 to 114 °C.

In turn, `NCc1cccc(-c2ccc(Br)cc2)n1` registered a melting point of 71 to 75 °C.

In turn, `O=c1[nH]c2cc(Cl)ccc2c(O)c1-c1ccccc1[N+](=O)[O-]` showed a melting point of 298 to 300 °C.

On to `CCCCCCCCCCCCCCOC(=O)OC1CC(C)(C)N(C)C(C)(C)C1`, for which the melting point was 32 to 34 °C.

As for `CCOC(=O)C1=C(C)NN=C(C(=O)OC)C1c1ccccc1C` (centres undefined), the melting point turned out to be 165 °C.

`CCON=C(CC)C1=C(O)CC(c2ccc(Sc3ncc(C(F)(F)F)cc3F)cc2)CC1=O` (centres undefined) had a melting point of 91 to 92 °C.

Take `CCCOc1ccc(S(=O)(=O)Nc2ccc3[nH]ncc3c2)cc1-c1nc2cc(Cl)c([N+](=O)[O-])cc2c(=O)[nH]1`: the melting point was in the range of 261 to 263 °C.

For the compound `CCOn1cnc2c(N)nc3ccccc3c21`, the melting point lay within 179 to 181 °C.

In turn, `NNc1ccc(S(N)(=O)=O)cc1` displayed a melting point of 169 to 171 °C.

`O=C(O)c1ccc(COCc2csc3nc(C(=O)NCc4ccc(F)c(Br)c4)[nH]c(=O)c23)cc1` returned a melting point of 231 to 233 °C.

`Oc1ccc2cc(-c3nc(-c4ccccc4)sc3Br)ccc2c1Br`: the melting point is 198 to 200 °C.

As to `CC(=O)OCCN1CCNC1=Nc1ccccc1N1CCOCC1`, the melting point fell in the range of 89 to 91 °C.

Turning to `O=C(c1ccccc1)N(N=Cc1ccccc1)c1ccccc1F`, the melting point was 97 to 99 °C.

Regarding `C=CC(=O)NC(C)(C)c1ccc(CC(=O)OCCC)cc1`, the melting point was 71 to 72 °C.

For the compound `NS(=O)(=O)c1ccc(-c2cnn(-c3ccc(F)cc3)c(=O)c2-c2ccc(F)cc2)cc1F`, the melting point fell in the range of 222 to 224 °C.

`CCc1cccc(C)c1CNc1nc(C(=O)N2CCCC2)cn2c(C)c(C)nc12` yielded a melting point of 197 °C.

In the case of `COc1ccc2c(Cl)c(C(=O)Cl)sc2c1Cl`, the melting point was 174 to 175 °C.

With `NS(=O)(=O)CS(=O)c1ccc(Cl)c(Cl)c1` (centres undefined), the melting point was 205 to 207 °C.

Consider `CC(C)(C)OC(=O)[C@H]1CC[C@@H](NC(=O)OCc2ccccc2)CC1`, for which the melting point lay in the range of 73 to 74 °C.

In turn, `CCOC(=O)C(NC(=O)OC(C)(C)C)c1csc(NC(=O)CCl)n1` (centres undefined) had a melting point of 192 to 193 °C.

`CCOC(=O)c1cn2ccncc2n1` yielded a melting point of 179 °C.

`O=S1(=O)c2cccc3cccc(c23)N1CCN1CCC(CN2CCc3[nH]c4ccc(F)cc4c3C2)CC1` displayed a melting point of 228 °C.

`CCC(NC(=O)c1sc(NC(=O)c2ccccc2)nc1C)c1ccccc1` (centres undefined) showed a melting point of 87 to 89 °C.

Take `CCSC(N)=C(C#N)C(N)=S`: the melting point fell in the range of 200 to 201 °C.

For the compound `O=[N+]([O-])c1cc(S(=O)(=O)Oc2ccccc2)ccc1Cl`, the melting point was 71 °C.

Turning to `O=C(NCc1ccc(Cl)cc1)c1cn(CCN2CCCC2)c2sc(CN3CCOCC3)cc2c1=O`, the melting point lay within 178 to 180 °C.

In turn, `Cc1cc(CNc2cccc3c2CN(C2CCC(=O)NC2=O)C3=O)oc1C` (centres undefined) displayed a melting point of 237 to 239 °C.

Compound `CC(=O)C=CS(=O)(=O)N1C=C(Cl)C=NC1` returned a melting point of 95 °C.

Consider `Oc1c(F)cc(Cn2cnnc2S)cc1F`, for which the melting point is 184 to 185 °C.

For the compound `CCSc1cc(C)nc(SCC)c1NC(=O)CCCCCCCSc1nc2ccccc2o1`, the melting point was in the range of 82 to 84 °C.

In turn, `COc1c(C(C)(C)C)cc(COc2ccc(C=C3SC(=S)NC3=O)cc2)cc1C(C)(C)C` returned a melting point of 213 to 218 °C.

As to `Nc1nc(/C(=N/OC2(C(=O)OCc3ccc([N+](=O)[O-])cc3)CCCCC2)C(=O)O)cs1`, the melting point is 184 to 185 °C.

Regarding `CCC1CC2C3CCC4=CC(=O)CCC4C3CCC2(C)C1OC(=O)CBr` (centres undefined), the melting point is 118 to 120 °C.

`Cc1cc(Br)c(Cl)c(C(=O)O)c1` gave a melting point of 160 °C.

As for `CN1CCN(C(=O)c2cc(=O)c3c(OCCOc4ccccc4)cccc3o2)CC1`, the melting point was in the range of 90 to 91.5 °C.

In turn, `c1ccc(N2CCN(c3ccccc3)C2Oc2ccc(C3N(c4ccccc4)CCN3c3ccccc3)cc2)cc1` had a melting point of 218 to 221 °C.

In turn, `O=C(N[C@H]1C(=O)N[C@@H]1CCO)OCc1ccccc1` displayed a melting point of 120 to 121 °C.

With `CSCCS(=O)(=O)NCCCc1ccc(-c2ccc(=O)[nH]n2)cc1`, the melting point lay within 173 to 174 °C.

Compound `COc1cc(OC)c2c(c1)N(Cc1ccccn1)C(=O)C21COc2cc3c(cc21)OCCO3` (centres undefined) returned a melting point of 187 to 188 °C.

Turning to `CN(SN(C)C(=O)F)C(=O)F`, the melting point is 40 to 41 °C.

Consider `CCOC(=O)C(Cc1ccc(C(N)=S)cc1)(NC(C)=O)C(=O)OCC`, for which the melting point lay within 168 to 172 °C.

In turn, `O=C1c2ccccc2CN1C1CCN(c2ccc(Cc3ccccc3)cc2)CC1` displayed a melting point of 151 to 155 °C.

For the compound `O=Cc1c(-c2ccccc2Cl)ccc2c1OCO2`, the melting point lay within 84 to 86 °C.

In turn, `C#Cc1ccc(S(N)(=O)=O)s1` returned a melting point of 114 to 116 °C.

`CN(C)Cc1nnc2n1-c1ccc(Cl)cc1C(c1ccccc1)=[N+]([O-])C2` came in with a melting point of 217 to 219 °C.

For the compound `Fc1cccc2c1CN(NC1=NCCN1)C2`, the melting point lay in the range of 168 to 170 °C.

Turning to `Cc1nc2n(c(=O)c1CCN1CCC(C(=O)c3ccc(F)cc3)CC1)CCCS2`, the melting point came to 165 °C.

For `O=C(Nc1ccc(-n2nc(C(F)(F)F)cc2-c2cccnc2)cc1)c1ccccc1F`, the melting point was in the range of 138 to 140 °C.

Compound `COc1cc(C(=O)Nc2ccc3c(c2)CN(C)CC3)cc(OC)c1OC` returned a melting point of 158 °C.

`CCc1cn(C2CC(O)C(CNC(=O)C(C)Cc3c(Cl)cccc3Cl)O2)c(=O)[nH]c1=O` (mixture of isomers) displayed a melting point of 194 to 197 °C.

As to `CCN(CCCCCCN)c1ccc2c(=O)[nH][nH]c(=O)c2c1`, the melting point stood at 170 °C.

`CC(=CC(N)[C@@H]1CN(c2ccc(-c3cccnc3)cn2)C(=O)O1)[N+](=O)[O-]` (some centres undefined): the melting point came out at 207 °C.

For `Oc1ccc(Cc2cnc3c(-c4cc(-c5ccccc5)cs4)cnn3c2O)cc1`, the melting point was 287 to 293 °C.

As for `C#CCn1ncc(=O)[nH]c1=O`, the melting point was 148 °C.

Compound `CC1CCN(c2ccccc2C(C)C(C(N)=O)c2ccc(C(=O)O)cc2)CC1` (centres undefined) displayed a melting point of 173 to 175 °C.

As for `CCCCC[C@H]1CC[C@H](c2ccc(-c3ccc(C=O)cc3)cc2)CC1`, the melting point was in the range of 115 to 116 °C.

`Cc1nc2c(O)c(C(=O)[C@H](O)[C@@H](O)c3ccccc3)ccc2n1C`: the melting point is 170 °C.

`O=C1N(Cc2ccc(C(F)(F)F)o2)c2cccc(-c3cncnc3)c2C12COc1cc3c(cc12)CCO3` (centres undefined) yielded a melting point of 263 to 266 °C.

`c1ccc2[nH]c(Cc3ccncc3)nc2c1` had a melting point of 185 to 186 °C.

With `CC(=O)c1ccc(OCC=C(C)CSCc2ccccc2)cc1`, the melting point is 75 to 76.5 °C.

Take `O=C1Nc2ccncc2C(c2ccccc2)N1C1CCN(Cc2ccccc2)CC1` (centres undefined): the melting point fell in the range of 209 to 210 °C.

Regarding `N#Cc1cc(-c2ccoc2)c2ccc(OCc3cccc(-c4ccccc4)n3)cc2c1`, the melting point lay in the range of 131 to 133 °C.

Regarding `COc1ccc(-c2nn(CC3CCCC3)c(=O)cc2-c2ccncc2)cc1`, the melting point fell in the range of 119 to 120 °C.
